# US20210186947A1, “TOMM6-INTERACTING EXTRACTS AND COMPOUNDS FOR USE IN THE TREATMENT AND PROPHYLAXIS OF NERVOUS SYSTEM DISEASES, ATHEROSCLEROSIS, HEPATITIS B INFECTION AND HUMAN PAPILLOMA VIRUS (HPV) INFECTION” (ETH ZURICH, priority 2018, published 2021)
# How the values were obtained:
# [1] = Sub-chronic oral toxicity in rats; type: in vivo, Sprague Dawley rats
# Description: Sub-chronic toxicity studies in dogs (German Shepherd dogs) and rats (Sprague Dawley rats) were performed by the Center of Applied Analytical and Veterinary Studies, Cairo, Egypt.
# The oral toxicity of alizarin (Compound-1) in rats was determined in a sub-chronic toxicity study. Rats were treated for 3 months with a once daily oral dose of alizarin of 25 mg/kg/day, 50 mg/kg/day and 100 mg/kg/day. […] The good tolerability of alizarin in rats and dogs is supported by previous observations in humans, which document that long-term treatment for several years with alizarin and alizarin-containing plant extracts is not toxic and was previously used to prevent recurrence of calcium-containing urinary stones (Lorenz et al., Methods Find. Exp. Clin. Pharmacol. 7, 637-643, 1985). Taken together, alizarin has good oral bioavailability and a wide therapeutic window.
# Pharmacokinetic data of Compound-7 were determined as another representative TOMM6/Tomm6 inducer with a different chemical structure than alizarin (Compound-1). […] The oral bioavailability of Compound-7 in dogs was much higher than in rats because oral doses of Compound-7 required to achieve equivalent peak serum concentrations were approximately 10-fold higher in rats compared to dogs (FIG. 20B). Again, this observation is in agreement with the equivalent surface area dosage rule, according to which rats and mice usually require a 10-12-fold higher dose than dogs and humans. […] This second peak could reflect enterohepatic recirculation of Compound-7.
# [2] = test system: Abeta plaques; assay: Abeta plaque load in Tg2576 mice, immunohistology with BAM-10 antibody; type: in vivo; conditions: 18-month-old Tg2576 mice treated for 6 months
# [3] = Measurement of serum level in dogs by HPLC; type: in vivo, German shepherd dogs; conditions: for peak serum concentration: t=1 h
# Description: Serum concentrations of alizarin were determined with serum isolated from the blood of male and female German shepherd dogs (age: 8-9 months) taken at different time points (0.5 h, 1 h, 2 h, 4 h, 6 h, 8 h, 24 h) after oral intake of the indicated doses for 4 weeks. In addition, serum concentrations of alizarin (Compound-1) were determined in male and female Sprague Dawley rats (body weight: 200-250 g) treated for 1 month and/or three months by oral gavage of alizarin at a once daily dose of 100 mg/kg, 50 mg/kg, 25 mg/kg and 12.5 mg/kg. Serum proteins were removed by acetonitrile precipitation, and alizarin was extracted by chloroform before separation on an HPLC-C18 column (Poroshell 120 EC-C18, 3.0×50 mm, Agilent) with an HPLC system (Agilent 1100 Series) and detection at OD245 nm. For quantitative determination of Compound-7 and Compound-10F in rat and dog serum, serum proteins were also removed by acetonitrile precipitation before HPLC analysis as detailed above and detection at OD254 nm.
# [4] = test system: angiotensin II AT2 receptor (AT2R, AGTR2); assay: AT2R protein aggregation assay in HEK cells, immunoblot; type: cell-based, human; conditions: 10 microM for 72 h
# Description: Proteins were also extracted from yeast cells and HEK cells expressing the indicated protein (i.e. HBsAg or AGTR2) as described above. Neuronal cell loss and hyperphosphorylated Tau in hippocampi of 15 months-old Tg2576 mice subjected to the CUMS protocol for 3 months was determined with crude homogenates of dissected hippocampi by direct binding assay with neuron-specific [^125I]-labeled anti-NeuN antibody (MAB377, clone A60, EMD Millipore, Merck KGaA, Darmstadt, Germany) and [^125I]-labeled AT8 antibody similarly as described (AbdAlla et al., J. Biol. Chem. 284, 6554-6565 (2009)).
# In the second non-Abeta-based protein aggregation assay, different plant extracts were tested in a mammalian cell system, which analyzed the protein aggregation of the angiotensin II AT2 receptor (AT2R, AGTR2) protein in human embryonic kidney (HEK) cells. The system has physiological relevance because this cellular system is capable to reproduce AT2R protein aggregation, which also occurs in brains of AD patients and AD animal models (AbdAlla et al., J. Biol. Chem. 284, 6554-6565 (2009); AbdAlla et al., J. Biol. Chem. 284, 6566-6574 (2009)). The AT2 receptor in human embryonic kidney (HEK) cells forms stable dimers/oligomers under pro-oxidant conditions, which are resistant to urea-containing reducing SDS-PAGE (FIG. 2A, and AbdAlla et al., J. Biol. Chem. 284, 6566-6574 (2009)). […]
# [5] = Tolerability / toxicity in dogs during four weeks of oral treatment; type: in vivo; conditions: once daily oral dose up to 6 mg/kg/d
# [6] = test system: Salmonella strain TA2637; conditions: cited from earlier work
# [7] = molecular target: T1, Tomm6 (Mus musculus, UniProt Q9CQN3); assay: Immunoblot detection of hippocampal Tomm6 protein in treated Tg2576 mice; type: in vivo; conditions: aged Tg2576 mice treated for 6 months
# T1 construct: hippocampi were isolated from 5-10 aged Tg2576 mice, pulverized under liquid nitrogen and solubilized; from tissue; host or cells: hippocampus of Tg2576 mice
# T1 sequence (Q9CQN3 1-74): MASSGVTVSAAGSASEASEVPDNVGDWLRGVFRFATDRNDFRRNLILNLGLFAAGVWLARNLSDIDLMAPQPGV
# [8] = humans; cited from earlier work
# [9] = test system: PHF-tau; assay: Hippocampal PHF-tau in the Tg-TauP301L model of tauopathy (AT8 antibody); type: in vivo; conditions: 12-month-old Tg-Tau-P301L mice treated for six months
smiles,measurement,setting,value
"O=C1c2ccccc2C(=O)c2c1ccc(O)c2O [Compound-1, 1,2-dihydroxyanthraquinone]","histopathology of heart, liver, kidney","[1]; rats, 3 months, once daily oral 100 mg/kg",did not show any detectable alterations
same,"adverse effects on body, liver, heart and kidney weight, serum calcium, creatinine, BUN, ALT, AST","[1]; rats, 3 months, once daily oral 25, 50 and 100 mg/kg/day",did not find any significant adverse effects
same,difference between therapeutic and toxic doses (therapeutic index),[1]; therapeutic dose 10 mg/kg once daily in rodent models,more than 10 fold
same,Abeta plaque load in hippocampal and brain cortical areas,[2],significantly inhibited the accumulation of Abeta plaques
same,oral bioavailability / serum concentrations after oral intake,[3],achieves therapeutic serum concentrations
same,time of second serum peak,[3]; after oral intake,4 h
same,peak serum concentration,[3]; repeated once daily oral dose of 2 mg/kg,0.146 ± 0.017 µg/mL
same,peak serum concentration,[3]; repeated once daily oral dose of 6 mg/kg,0.467 ± 0.022 µg/mL
same,time of peak serum concentration,[3]; repeated once daily oral intake of 2 mg/kg/day and 6 mg/kg/day,1 h
same,aggregation of the AT2 receptor,[4],inhibited the aggregation of the AT2 receptor
same,"adverse effects (behaviour, food intake, weight gain, cardiovascular parameters, blood cells, clinical chemistry)",[5],did not induce any detectable adverse effects
same,mutagenicity in the Ames test,[6],could be mutagenic
same,hippocampal protein content of Tomm6,[7],substantially increased
same,toxicity of long-term treatment for several years,[8],is not toxic
same,hippocampal content of PHF-tau,[9],significantly decreased hippocampal content of PHF-tau
